Each structure is given as a SMILES string. pIC50, pKi: −log10 of the molar value. Structures can show the parent of a compound that is named as a salt. Where two headings read alike, the source gives them in different places.

These results are taken from patent publication US6821981B2, “Azaheterocyclylmethyl derivatives of 2,3-dihydro-1,4-dioxino[2,3-f]-quinoline as 5-HT1A antagonists” (Wyeth, priority 2001, dated 2004).

One series concerns the target T1, human 5-HT1A receptors (Homo sapiens, UniProt P08908).
T1 construct: expressed in transfected cells; host or cells: CHO cells
T1 sequence (P08908 1-422): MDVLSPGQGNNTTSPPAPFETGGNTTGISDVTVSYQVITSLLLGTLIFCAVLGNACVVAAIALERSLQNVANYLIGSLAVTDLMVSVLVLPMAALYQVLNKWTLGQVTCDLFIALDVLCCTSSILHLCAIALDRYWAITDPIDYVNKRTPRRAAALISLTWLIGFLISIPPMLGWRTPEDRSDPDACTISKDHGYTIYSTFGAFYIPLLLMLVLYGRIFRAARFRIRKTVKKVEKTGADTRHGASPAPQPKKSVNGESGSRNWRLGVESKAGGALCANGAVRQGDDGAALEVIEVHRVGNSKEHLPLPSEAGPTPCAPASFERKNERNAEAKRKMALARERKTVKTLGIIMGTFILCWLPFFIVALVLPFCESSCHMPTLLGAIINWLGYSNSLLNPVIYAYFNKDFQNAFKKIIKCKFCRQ
In words: [3H] 8-OH-DPAT displacement from 5-HT1A receptor. The series is classed as binding. The source says:
High affinity for the serotonin 5-HT1A receptor was established by testing the claimed compound's ability to displace [^3H] 8-OH-DPAT (dipropylaminotetralin) from the 5-HT1A serotonin receptor following a modification of the procedure of Hall et al., J. Neurochem. 44, 1685 (1985) which utilizes CHO cells stably transfected with human 5-HT1A receptors.

Series [1] deals with T2, cloned human 5-HT1A receptors (Homo sapiens, UniProt P08908).
T2 construct: expressed in transfected cells
T2 sequence (P08908 1-422): T1 sequence (P08908 1-422)
In words: 35S-GTPγS binding assay, antagonist activity versus 8-OH-DPAT. The series is classed as biochemical. To be noted: for 5-HT1A Function Imax (maximum inhibitory effect): value in parentheses after IC50. As to the method:
Antagonist activity at 5-HT1A receptors was established by using a ^35S-GTPγS binding assay similar to that used by Lazareno and Birdsall (Br. J. Pharmacol. 109: 1120, 1993), in which the test compound's ability to affect the binding of ^35S-GTPγS to membranes containing cloned human 5-HT1A receptors was determined. Agonists produce an increase in binding whereas antagonists produce no increase but rather reverse the effects of the standard agonist 8-OH-DPAT. The test compound's maximum inhibitory effect is represented as the Imax, while its potency is defined by the IC50.

Where [2] appears, read: CHO cells stably transfected with human 5-HT1A receptors, [3H] 8-OH-DPAT, read-out: 5-HT1A Receptor Affinity KI.
Setting [3] is: reversal of the effects of the standard agonist 8-OH-DPAT on 35S-GTPγS binding, read-out: 5-HT1A Function IC50.

`Cc1ccc2c3c(ccc2n1)OCC(CN1CCC(C(=O)c2ccc(F)cc2)CC1)O3` (stereo not shown) [Example 5, (4-Fluorophenyl)(1-{[8-methyl-2,3-dihydro[1,4]dioxino[2,3-f]quinolin-2-yl]methyl}-4-piperidinyl)methanone]: the pKi (in general, the Ki on a negative log10 scale, so that one unit is a factor of ten) at human 5-HT1A receptors (setting [2]) was 7.73.

For `O=C1NCN(c2ccccc2)C12CCN(CC1COc3ccc4ncccc4c3O1)CC2` (stereo not shown) [Example 1, 8-[2,3-Dihydro[1,4]dioxino[2,3-f]quinolin-2-ylmethyl]-1-phenyl-1,3,8-triazaspiro[4.5]decan-4-one], the pKi on human 5-HT1A receptors (setting [2]) is 8.84. In series [1] (setting [3]), the pIC50 (in general, the negative decadic logarithm of the IC50, by convention in mol/L) is 7.26. Further, the “5-HT1A Function Imax (maximum inhibitory effect)” value in series [1] came to 100.

`Cc1ccc2c3c(ccc2n1)OCC(CN1CCCCC1)O3` (stereo not shown) [Example 4, 8-Methyl-2-(piperidin-1-ylmethyl)-2,3-dihydro[1,4]dioxino[2,3-f]quinoline]: the pKi at human 5-HT1A receptors (setting [2]) was 7.29. The pIC50 in series [1] (setting [3]) is 6.32. In series [1], the “5-HT1A Function Imax (maximum inhibitory effect)” value came out at 100. As to `Cc1ccc2c3c(ccc2n1)OC[C@H](CN1CCC(n2c(=O)[nH]c4ccccc42)CC1)O3` (as salt: fumarate) (hydrate or solvate) [Example 3, 1-(1-{[8-Methyl-2,3-dihydro[1,4]dixino[2,3-f]quinlin-2-yl]methyl}piperidin-4-yl)-1,3-dihydro-2H-benzimidazol-2-one], the melting point (as a rule, the temperature of the solid-liquid transition) was 194 to 196 °C. Regarding `Cc1ccc2c3c(ccc2n1)OCC(CN1CCCCC1)O3` (stereo not shown) (as salt: hydrochloride) (hydrate or solvate) [Example 4, 8-Methyl-2-(piperidin-1-ylmethyl)-2,3-dihydro[1,4]dioxino[2,3-f]quinoline], the melting point fell in the range of 278 to 280 °C. `Cc1ccc2c3c(ccc2n1)OCC(CN1CCC(C#N)(c2ccccc2)CC1)O3` (stereo not shown) [Example 7, 1-{[8-Methyl-2,3-dihydro[1,4]dioxino[2,3-f]quinolin-2-yl]methyl}-4-phenyl-4-piperidinecarbonitrile] showed a pKi on human 5-HT1A receptors of 7.12. Besides, in series [1], the pIC50 is 6.35 and the “5-HT1A Function Imax (maximum inhibitory effect)” value came out at 50.

Molecule `Cc1ccc2c3c(ccc2n1)OCC(CN1CCC(C(=O)c2ccc(F)cc2)CC1)O3` (stereo not shown) (as salt: fumarate) (hydrate or solvate) [Example 5, (4-Fluorophenyl)(1-{[8-methyl-2,3-dihydro[1,4]dioxino[2,3-f]quinolin-2-yl]methyl}-4-piperidinyl)methanone] gave a melting point of 206 to 207 °C. As for `Cc1ccc2c3c(ccc2n1)OCC(CN1CCC(O)(c2cccc(C(F)(F)F)c2)CC1)O3` (stereo not shown) (as salt: fumarate) (hydrate or solvate) [Example 6, 1-{[8-Methyl-2,3-dihydro[1,4]dioxino[2,3-f]quinolin-2-yl]methyl}-4-[3-(trifluoromethyl)phenyl]-4-piperidinol], the melting point fell in the range of 133 to 135 °C.

`Cc1ccc2c3c(ccc2n1)OCC(CN1CCC2(CC1)C(=O)NCN2c1ccccc1)O3` (stereo not shown) [Example 2, 8-{[8-Methyl-2,3-dihydro[1,4]dioxino[2,3-f]quinolin-2-yl]methyl}-1-phenyl-1,3,8-triazaspiro[4.5]decan-4-one]: at human 5-HT1A receptors (setting [2]), the negative logarithm of the Ki (pKi) was 8.75. Further, the pIC50 in series [1] (setting [3]) is 7.19. Further, in series [1], the “5-HT1A Function Imax (maximum inhibitory effect)” value is 100. As to `Cc1ccc2c3c(ccc2n1)OCC(CN1CCC2(CC1)C(=O)NCN2c1ccccc1)O3` (stereo not shown) (as salt: fumarate) (hydrate or solvate) [Example 2, 8-{[8-Methyl-2,3-dihydro[1,4]dioxino[2,3-f]quinolin-2-yl]methyl}-1-phenyl-1,3,8-triazaspiro[4.5]decan-4-one], the melting point was 199 to 201 °C. In turn, `O=C1NCN(c2ccccc2)C12CCN(CC1COc3ccc4ncccc4c3O1)CC2` (stereo not shown) (as salt: fumarate) [Example 1, 8-[2,3-Dihydro[1,4]dioxino[2,3-f]quinolin-2-ylmethyl]-1-phenyl-1,3,8-triazaspiro[4.5]decan-4-one] gave a melting point of 170 °C.

`Cc1ccc2c3c(ccc2n1)OCC(CN1CC=C(c2ccccc2)CC1)O3` (stereo not shown) (as salt: fumarate) (hydrate or solvate) [Example 8, 8-Methyl-2-{[4-phenyl-3,6-dihydro-1(2H)-pyridinyl]methyl}-2,3-dihydro[1,4]dioxino[2,3-f]quinoline] came in with a melting point of 185 to 188 °C. As for `Cc1ccc2c3c(ccc2n1)OC[C@H](CN1CCC(n2c(=O)[nH]c4ccccc42)CC1)O3` [Example 3, 1-(1-{[8-Methyl-2,3-dihydro[1,4]dixino[2,3-f]quinlin-2-yl]methyl}piperidin-4-yl)-1,3-dihydro-2H-benzimidazol-2-one], at human 5-HT1A receptors (setting [2]), the pKi was 8.51. Further, in series [1] (setting [3]), the pIC50 is 7.18. Also, the “5-HT1A Function Imax (maximum inhibitory effect)” value in series [1] is given as 85.0.

Turning to `CCc1ccc2c3c(ccc2n1)OCC(CN1CCC2(CC1)C(=O)NCN2c1ccccc1)O3` (stereo not shown) (as salt: fumarate) (hydrate or solvate) [Example 9, 8-{[8-Ethyl-2,3-dihydro[1,4]dioxino[2,3-f]quinolin-2-yl]methyl}-1-phenyl-1,3,8-triazaspiro[4.5]decan-4-one], the melting point lay within 207 to 209 °C. In turn, `Cc1ccc2c3c(ccc2n1)OCC(CN1CCC(C#N)(c2ccccc2)CC1)O3` (stereo not shown) (as salt: salt) [Example 7, 1-{[8-Methyl-2,3-dihydro[1,4]dioxino[2,3-f]quinolin-2-yl]methyl}-4-phenyl-4-piperidinecarbonitrile] had a melting point of 185 to 187 °C. In the case of `Cc1ccc2c3c(ccc2n1)OCC(CN1CCC(O)(c2cccc(C(F)(F)F)c2)CC1)O3` (stereo not shown) [Example 6, 1-{[8-Methyl-2,3-dihydro[1,4]dioxino[2,3-f]quinolin-2-yl]methyl}-4-[3-(trifluoromethyl)phenyl]-4-piperidinol], the pKi on human 5-HT1A receptors (setting [2]) was 8.16.

As to `CCc1ccc2c3c(ccc2n1)OCC(CN1CCC2(CC1)C(=O)NCN2c1ccccc1)O3` (stereo not shown) [Example 9, 8-{[8-Ethyl-2,3-dihydro[1,4]dioxino[2,3-f]quinolin-2-yl]methyl}-1-phenyl-1,3,8-triazaspiro[4.5]decan-4-one], the pKi on human 5-HT1A receptors (setting [2]) was 8.55. In the case of `Cc1ccc2c3c(ccc2n1)OCC(CN1CC=C(c2ccccc2)CC1)O3` (stereo not shown) [Example 8, 8-Methyl-2-{[4-phenyl-3,6-dihydro-1(2H)-pyridinyl]methyl}-2,3-dihydro[1,4]dioxino[2,3-f]quinoline], the negative-log Ki (pKi) at human 5-HT1A receptors (setting [2]) was 8.10.
